Laboratory results from US20060159666A1, “Method of potentiating inflammatory and immune modulation for cell and drug therapy” (priority 2004, published 2006).

What was measured:
HUCBCs [1] = assay: 96-Chemotx migration assay of HUCBCs to recombinant chemoattractants; type: cell-based, human; settings: MCP-1 5-30 ng/mL, IL-3 1-10 ng/mL, TPO 10-40 ng/mL; 4 hr; ATP luminescence
Description: HUCBCs were prepared as described above and cultured for 24 hr before use. The 96-Chemotx chambers (NeuroProbe, Gaithersburg, Md.) were used for the migration assays. The chamber is a 96-well plate consisting of bottom wells to hold the unknowns or chemoattractant and a top plate, which is a polycarbonate membrane with 5 μm pore size. […] All were pipetted (300 μL) directly into the bottom wells, in triplicate, after which the top plate was securely attached. The HUCBCs were pipetted directly into each top well at a concentration of 62,000 cells per 25 μL. The migration chambers were then placed in a cell culture incubator at 37° C. with 5% CO2 for 4 hr. The top plates were removed and the bottom plates were then centrifuged (300 rpm for 10 min) to force cells to the bottom. Half the medium (150 μL) was then removed and a cell viability assay (CellTiter-Glo Kit, Promega), which is based on the ability of live cells to incorporate adenosine triphosphate (ATP), was used to determine the numbers of cells that had migrated. The migration plate was read in an automated plate reader (BioTek) set to the appropriate luminescence.

HUCBCs [2] = assay: 96-Chemotx migration assay of HUCBCs to MCAO brain tissue extracts; type: cell-based, human; settings: positive control; 4 hours
From the text: In determining the time course of HUCBC migration into brain after a stroke, an ex vivo experimental approach was employed. Male Sprague Dawley rats under a permanent middle cerebral artery occlusion (MCAO); a nylon filament was threaded through the internal carotid artery to the origin of the MCA and permanently ligated in place. At 4, 6, 12, 24, 48, 72 hrs and 1 week after ischemia the animals were euthanized and the brains removed within two min, immediately flash-frozen and then stored at −80° C. until needed. The frozen brains were semi-thawed and kept cold. The striatum, hippocampus, and the cortex were dissected from the sides both ipsilateral and contralateral to the occlusion. The same dissections were performed for sham surgery and normal rats. Tissue from each of the conditions were pooled, and kept on ice in clear Dulbecco's modified Eagle's medium (DMEM, Invitrogen, Carlsbad, Calif.). […]
The cryopreserved HUCBCs were thawed and transferred into clear DMEM with 5% FBS and 1 μL/1 mL of Gentamicin (Sigma, St. Louis). […] Cord blood cells were then plated in low adherence 6 well culture dishes (Corning, Corning, N.Y.) for 24 hrs in a water jacket incubator set at 37° C. and with 5% CO2 After 24 hrs cells were lifted by gentle pipetting, placed in a 15 mL tube, centrifuged, resuspended in 1 mL of media without FBS, and viability assessed using the trypan blue dye exclusion method. […]

HUCBCs [3] = assay: Human cytokine antibody array of HUCBC conditioned medium; type: cell-based; settings: Ex Vivo 10 medium; IL-3 5 ng/mL or TPO 25 ng/mL for 5 d; 42-cytokine array
Description: The mononuclear fraction of the HUCBCs was obtained from Saneron CCEL Therapeutics, Inc. (Oldsmar, Fla.). Frozen samples were thawed in 10 mL of DMEM (Gibco), supplemented with 5% fetal bone serum (FBS, Gibco) and gentamicin (50 μg/mL, Sigma), or with Ex Vivo 10 media with gentamicin (50 μg/mL, Sigma). After centrifugation for 10 min at 200 rpm, the supernatant was removed and the cells were resuspended in 1 mL of the same medium. The viability of all samples ranged from 73% to 95% as determined by the ability to exclude trypan blue dye. Cells were then cultured for 3 to 14 d for cytokine arrays and ELISA assays; cells cultured in Ex Vivo 10 media were further stimulated with IL-3, TPO or both.
In order to address this, we used human cytokine arrays to establish whether the HUCBCs secreted these proteins. To determine the cytokines that HUCBCs released during culture, we used a TranSignal human cytokine antibody array (Panomics, Inc., Redwood City, Calif.), which simultaneously profiles either 23 (Array 1.0) or 42 (Array 3.0) cytokines/assay at the protein level. First, we examined whether cytokine production increased as a function of seeding density. The HUCBC were cultured at concentrations of 5, 10, or 30×10^6 per 5 mL of serum free DMEM with Gentamicin (50 μg/mL) for 3 d. […]

Substance: MCP-1: human recombinant MCP-1 used as chemoattractant
- HUCBC migration to chemoattractant compared to controls (DMEM and PBS) (HUCBCs [1]): Significantly more HUCBCs migrated

Substance: SDF-1: Stromal derived factor 1, chemoattractant used as positive control
- HUCBC migration to SDF-1 chemoattractant compared to all other conditions (HUCBCs [2]): Significantly more HUCBCs

Substance: TPO: thrombopoietin, factor known to stimulate hematopoietic cells
- cytokine release from HUCBCs after stimulation (HUCBCs [3]): a somewhat different profile of protein release
- HUCBC migration to chemoattractant compared to controls (DMEM and PBS) (HUCBCs [1]): Significantly more HUCBCs migrated
